According to ChEMBL document CHEMBL4765458, “Synthesis and biological evaluation of organoselenium (NSAIDs-SeCN and SeCF) derivatives as potential anticancer agents” (Eur J Med Chem, 2020):
The source made the active and inactive calls. No cut-off for these calls is given here.

Assays:
MCF7 [1] = assay: Cytotoxicity against human MCF7 cells assessed as reduction in cell viability measured after 72 hrs by MTT assay; format: functional, cell-based; conditions: MCF7, 72 h
SW480 [2] = assay: Cytotoxicity against human SW480 cells assessed as reduction in cell viability measured after 24 hrs by MTT assay; format: functional, cell-based; conditions: SW480, 24 h
MCF7 [3] = assay: Cytotoxicity against human MCF7 cells assessed as reduction in cell viability measured after 24 hrs by MTT assay; format: functional, cell-based; conditions: MCF7, 24 h
A549 [4] = assay: Cytotoxicity against human A549 cells assessed as reduction in cell viability measured after 72 hrs by MTT assay; format: functional, cell-based; conditions: A549, 72 h
SW480 [5] = assay: Cytotoxicity against human SW480 cells assessed as reduction in cell viability measured after 72 hrs by MTT assay; format: functional, cell-based; conditions: SW480, 72 h
MCF7 [6] = assay: Cytotoxicity against human MCF7 cells assessed as reduction in cell viability measured after 48 hrs by MTT assay; format: functional, cell-based; conditions: MCF7, 48 h
HeLa [7] = assay: Cytotoxicity against human HeLa cells assessed as reduction in cell viability measured after 48 hrs by MTT assay; format: functional, cell-based
HeLa [8] = assay: Cytotoxicity against human HeLa cells assessed as reduction in cell viability measured after 24 hrs by MTT assay; format: functional, cell-based
A549 [9] = assay: cells; conditions: Homo sapiens, A549, 48 h
A549 [10] = assay: Cytotoxicity against human A549 cells assessed as reduction in cell viability measured after 24 hrs by MTT assay; format: functional, cell-based; conditions: A549, 24 h
SW480 [11] = assay: Cytotoxicity against human SW480 cells assessed as reduction in cell viability measured after 48 hrs by MTT assay; format: functional, cell-based; conditions: SW480, 48 h
HeLa [12] = assay: Cytotoxicity against human HeLa cells assessed as reduction in cell viability measured after 72 hrs by MTT assay; format: functional, cell-based
[13] = Antioxidant activity assessed as DPPH radical scavenging activity incubated for 30 mins under dark condition relative to control; format: functional; set-up: concentration or dose not given beside the values
MCF7 [14] = assay: Induction of apoptosis in human MCF7 cells assessed as down regulation of Bcl-2 expression at IC50 measured after 48 hrs by ELISA relative to control; format: functional
MCF7 [15] = assay: Induction of apoptosis in human MCF7 cells assessed as up regulation of caspase-3 expression at IC50 measured after 48 hrs by ELISA relative to control; format: functional
MCF7 [16] = assay: Induction of apoptosis in human MCF7 cells assessed as up regulation of IL-2 expression at IC50 measured after 48 hrs by ELISA relative to control; format: functional
[17] = Antioxidant activity assessed as GPx-like activity by measuring oxidation of NADPH to NADP+ by NADPH-reductase coupled assay; format: functional

SMILES: CC1=C(CC(=O)O)c2cc(F)ccc2/C1=C\c1ccc([S+](C)[O-])cc1 (stereo unspecified)
- IC50 (MCF7 [1]): > 50 µM
- IC50 (SW480 [2]): > 50 µM
- IC50 (MCF7 [3]): > 50 µM
- IC50 (A549 [4]): > 50 µM
- IC50 (SW480 [5]): > 50 µM
- IC50 (MCF7 [6]): > 50 µM
- IC50 (HeLa [7]): > 50 µM
- IC50 (HeLa [8]): > 50 µM
- IC50 (A549 [9]): > 50 µM
- IC50 (A549 [10]): > 50 µM
- IC50 (SW480 [11]): > 50 µM
- IC50 (HeLa [12]): > 50 µM

SMILES: N#C[Se]CCCNC(=O)c1ccccc1Nc1cccc(C(F)(F)F)c1
- IC50 (MCF7 [1]): 13.3 µM
- IC50 (SW480 [2]): 25.2 µM
- IC50 (MCF7 [3]): 14.2 µM
- IC50 (A549 [4]): 36.4 µM
- IC50 (SW480 [5]): 24.7 µM
- IC50 (MCF7 [6]): 16.4 µM
- IC50 (HeLa [7]): 33.4 µM
- IC50 (HeLa [8]): 38.2 µM
- IC50 (A549 [9]): 28.3 µM
- IC50 (A549 [10]): 26.1 µM
- IC50 (SW480 [11]): 17.4 µM
- IC50 (HeLa [12]): > 50 µM

SMILES: CC1=C(CC(=O)NCCC[Se]C#N)c2cc(F)ccc2/C1=C\c1ccc([S+](C)[O-])cc1 (stereo unspecified)
- IC50 (MCF7 [1]): 11.3 µM
- IC50 (SW480 [2]): 15.4 µM
- IC50 (MCF7 [3]): 13.2 µM
- IC50 (A549 [4]): 9.4 µM
- IC50 (SW480 [5]): 12.1 µM
- inhibition [13]: 21.2%
- IC50 (MCF7 [6]): 8.4 µM
- IC50 (HeLa [7]): 16.2 µM
- IC50 (HeLa [8]): 28.4 µM
- IC50 (A549 [9]): 15.3 µM
- IC50 (A549 [10]): 11.4 µM
- IC50 (SW480 [11]): 12.4 µM
- IC50 (HeLa [12]): 21.5 µM

SMILES: Cc1cccc(Nc2ccccc2C(=O)NCCC[Se]C#N)c1C
- IC50 (MCF7 [1]): 7.9 µM
- IC50 (SW480 [2]): 14.4 µM
- IC50 (MCF7 [3]): 18.5 µM
- IC50 (A549 [4]): > 50 µM
- IC50 (SW480 [5]): 13.2 µM
- inhibition [13]: 26.5%
- IC50 (MCF7 [6]): 11.2 µM
- IC50 (HeLa [7]): 34.3 µM
- IC50 (HeLa [8]): 26.5 µM
- IC50 (A549 [9]): > 50 µM
- IC50 (A549 [10]): 37.3 µM
- IC50 (SW480 [11]): 9.7 µM
- IC50 (HeLa [12]): > 50 µM

SMILES: Cc1cccc(Nc2ccccc2C(=O)NCCC[Se]C(F)(F)F)c1C
- IC50 (MCF7 [1]): 6.9 µM
- IC50 (SW480 [2]): 12.4 µM
- IC50 (MCF7 [3]): 8.5 µM
- IC50 (A549 [4]): > 50 µM
- IC50 (SW480 [5]): 10.3 µM
- inhibition [13]: 38.9%
- IC50 (MCF7 [6]): 9.2 µM
- IC50 (HeLa [7]): 28.3 µM
- IC50 (HeLa [8]): 24.5 µM
- IC50 (A549 [9]): 36.8 µM
- IC50 (A549 [10]): 27.3 µM
- IC50 (SW480 [11]): 8.4 µM
- IC50 (HeLa [12]): > 50 µM

SMILES: CC(C)Cc1ccc(C(C)C(=O)NCCC[Se]C#N)cc1 (stereo unspecified)
- Activity (MCF7 [14]): Active
- Activity (MCF7 [15]): Active
- IC50 (MCF7 [1]): 16.5 µM
- IC50 (SW480 [2]): 8.9 µM
- IC50 (MCF7 [3]): 12.1 µM
- IC50 (A549 [4]): 28.5 µM
- IC50 (SW480 [5]): 6.4 µM
- inhibition [13]: 60.8%
- IC50 (MCF7 [6]): 14.3 µM
- fold change (FC) (MCF7 [16]): 1.5
- IC50 (HeLa [7]): 26.3 µM
- IC50 (HeLa [8]): 13.5 µM
- IC50 (A549 [9]): 30.2 µM
- IC50 (A549 [10]): 24.4 µM
- Activity [17]: Active
- IC50 (SW480 [11]): 5.3 µM
- IC50 (HeLa [12]): 29.3 µM

SMILES: CC(C(=O)O)c1cccc(C(=O)c2ccccc2)c1 (stereo unspecified) [KETOPROFEN]
- IC50 (MCF7 [1]): > 50 µM
- IC50 (SW480 [2]): > 50 µM
- IC50 (MCF7 [3]): > 50 µM
- IC50 (A549 [4]): > 50 µM
- IC50 (SW480 [5]): > 50 µM
- IC50 (MCF7 [6]): > 50 µM
- IC50 (HeLa [7]): > 50 µM
- IC50 (HeLa [8]): > 50 µM
- IC50 (A549 [9]): > 50 µM
- IC50 (A549 [10]): > 50 µM
- IC50 (SW480 [11]): > 50 µM
- IC50 (HeLa [12]): > 50 µM

SMILES: COc1ccc2c(c1)c(CC(=O)O)c(C)n2C(=O)c1ccc(Cl)cc1 [INDOMETHACIN]
- IC50 (MCF7 [1]): > 50 µM
- IC50 (SW480 [2]): > 50 µM
- IC50 (MCF7 [3]): > 50 µM
- IC50 (A549 [4]): > 50 µM
- IC50 (SW480 [5]): > 50 µM
- IC50 (MCF7 [6]): > 50 µM
- IC50 (HeLa [7]): > 50 µM
- IC50 (HeLa [8]): > 50 µM
- IC50 (A549 [9]): > 50 µM
- IC50 (A549 [10]): > 50 µM
- IC50 (SW480 [11]): > 50 µM
- IC50 (HeLa [12]): > 50 µM

SMILES: CCc1cccc2c3c([nH]c12)C(CC)(CC(=O)NCCC[Se]C(F)(F)F)OCC3 (stereo unspecified)
- IC50 (MCF7 [1]): 33.5 µM
- IC50 (SW480 [2]): 17.5 µM
- IC50 (MCF7 [3]): 26.2 µM
- IC50 (A549 [4]): 26.6 µM
- IC50 (SW480 [5]): 19.6 µM
- inhibition [13]: 26.8%
- IC50 (MCF7 [6]): 28.4 µM
- IC50 (HeLa [7]): 14.4 µM
- IC50 (HeLa [8]): 22.8 µM
- IC50 (A549 [9]): 17.7 µM
- IC50 (A549 [10]): 19.4 µM
- IC50 (SW480 [11]): 14.5 µM
- IC50 (HeLa [12]): 25.5 µM

SMILES: O=c1[nH]cc(F)c(=O)[nH]1 [FLUOROURACIL]
- IC50 (MCF7 [1]): 12.6 µM
- IC50 (SW480 [2]): 15.3 µM
- IC50 (MCF7 [3]): 8.5 µM
- IC50 (A549 [4]): 17.3 µM
- IC50 (MCF7 [6]): 10.4 µM
- IC50 (HeLa [7]): 15.5 µM
- IC50 (HeLa [8]): 20.6 µM
- IC50 (A549 [10]): 25.3 µM
- IC50 (SW480 [11]): 12.4 µM
- IC50 (HeLa [12]): 12.7 µM

SMILES: CC(C(=O)NCCC[Se]C(F)(F)F)c1ccc(-c2ccccc2)c(F)c1 (stereo unspecified)
- IC50 (MCF7 [1]): 18.5 µM
- IC50 (SW480 [2]): 18.3 µM
- IC50 (MCF7 [3]): 12.1 µM
- IC50 (A549 [4]): 35.4 µM
- IC50 (SW480 [5]): 19.5 µM
- inhibition [13]: 40.5%
- IC50 (MCF7 [6]): 17.1 µM
- IC50 (HeLa [7]): 28.4 µM
- IC50 (HeLa [8]): 30.2 µM
- IC50 (A549 [9]): 23.2 µM
- IC50 (A549 [10]): 14.5 µM
- Activity [17]: Active
- IC50 (SW480 [11]): 24.4 µM
- IC50 (HeLa [12]): 14.9 µM
